Data from ChEMBL document CHEMBL4052771, “3,5-Bis(3-dimethylaminomethyl-4-hydroxybenzylidene)-4-piperidone and related compounds induce glutathione oxidation and mitochondria-mediated cell death in HCT-116 colon cancer cells” (Bioorg Med Chem Lett, 2017).
Active and inactive are the calls of the source. The calls are words filed in the database; no cut-off is given here.

What was measured:
Liver [1] = test: Stimulation of mitochondrial respiration in Wistar rat liver […] assessed as oxygen consumption rate at 20 and 25 uM using pyruvate and malate as respiratory substrate after 4 mins; type: functional
HCT-116 [2] = test: Induction of mitochondrial superoxide generation in human HCT116 cells at antiproliferative GI50 after 60 mins by mitoSOX red-probe based fluorescence assay; type: functional, cell-based
HCT-116 [3] = test: Induction of mitochondrial membrane potential loss in human HCT116 cells at antiproliferative GI50 after 48 hrs by JC-1 staining based fluorescence assay; type: functional, cell-based
[4] = Cytotoxicity against human CRL1790 cells assessed as reduction in cell viability after 48 hrs by sulforhodamine B assay; type: cell-based; conditions: CRL1790 (CCD-841CoN) cells
[5] = Selectivity index, ratio of GI50 for human CRL1790 cells to GI50 for human HCT116 cells; type: functional
HCT-116 [6] = test: Antiproliferative activity against human HCT116 cells after 48 hrs by sulforhodamine B assay; type: functional; conditions: HCT-116, 48 h
HCT-116 [7] = test: Induction of reactive oxygen species generation in human HCT116 cells at antiproliferative GI50 after 60 mins by DCFH-DA probe based assay; type: functional, cell-based
HCT-116 [8] = test: Induction of glutathione oxidation in human HCT116 cells assessed as increase in GSSG/GSH ratio at 500 uM in presence of NADPH after 48 hrs by Ellman's method; type: functional, cell-based
Liver [9] = test: Induction of mitochondrial swelling in Wistar rat liver […] at 0.1 uM after 20 mins in presence of pyruvate and malate by spectroscopic analysis; type: functional
Liver [10] = test: Stimulation of mitochondrial respiration in Wistar rat liver […] assessed as oxygen consumption rate at 0.1 and 10 uM using pyruvate and malate as respiratory substrate after 4 mins; type: functional

O=[N+]([O-])c1ccc(O)c([N+](=O)[O-])c1
Activity (Liver [1]): Active

COc1cc(/C=C/C(=O)CC(=O)/C=C/c2ccc(O)c(OC)c2)ccc1O [CURCUMIN]
Activity (HCT-116 [2]): Active
Activity (HCT-116 [3]): Active
GI50 at 48 h [4]: 58.6 µM
RatioGI50 [5]: 16.7
GI50 (HCT-116 [6]): 3.5 µM
Activity (HCT-116 [7]): Active
Activity (HCT-116 [8]): Active
Activity (Liver [9]): Active

O=c1[nH]cc(F)c(=O)[nH]1 [FLUOROURACIL]
Activity (Liver [10]): inactive
GI50 at 48 h [4]: 10.3 µM
RatioGI50 [5]: 1.88
GI50 (HCT-116 [6]): 5.47 µM
Activity (Liver [9]): inactive
